Bridge positions count the residues as written; N and C are the ends. Square brackets hold non-standard residues; d marks the D form. Peptide text beside a SMILES is read from it. * marks the point of attachment. Phe(4-COOH) = N[C@@H](Cc1ccc(C(=O)O)cc1)C(=O)O; Phe(2-CF3) = N[C@@H](Cc1ccccc1C(F)(F)F)C(=O)O; Bip = N[C@@H](Cc1ccc(-c2ccccc2)cc1)C(=O)O; Phe(3-Me) = Cc1cccc(C[C@H](N)C(=O)O)c1; Phe(2-F) = N[C@@H](Cc1ccccc1F)C(=O)O; Val(3-OH) = CC(C)(O)[C@H](N)C(=O)O; Cha = N[C@@H](CC1CCCCC1)C(=O)O; Carboxymethyl = O=C(O)C*; Orn = NCCC[C@H](N)C(=O)O; Aun = NCCCCCCCCCCC(=O)O; Dab = NCC[C@H](N)C(=O)O; Dap = NC[C@H](N)C(=O)O; AEEA = NCCOCCOCC(=O)O

The target in this assay is T1, PD-1/PD-L1 interaction (PE-labeled human PD-L1-Ig binding to Jurkat cell line over-expressing human PD-1) (Homo sapiens, UniProt Q15116).
T1 construct: expressed in transfected cells; host or cells: Jurkat
T1 sequence (Q15116 25-288): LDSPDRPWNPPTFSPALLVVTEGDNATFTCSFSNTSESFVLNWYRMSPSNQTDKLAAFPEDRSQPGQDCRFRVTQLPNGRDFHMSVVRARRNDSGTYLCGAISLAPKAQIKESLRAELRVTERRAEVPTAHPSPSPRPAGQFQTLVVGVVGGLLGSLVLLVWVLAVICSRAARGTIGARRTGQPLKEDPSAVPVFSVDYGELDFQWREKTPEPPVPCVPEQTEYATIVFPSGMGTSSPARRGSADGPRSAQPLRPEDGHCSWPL
The experiment in a line: Jurkat-PD-1 Cell Binding High-Content Screening Assay (CBA). The assay is classed as cell-based. Particulars: Jurkat cell line over-expressing human PD-1; PE-labeled PD-L1-Ig 20 nM final; read-out: Jurkat hPD1-PDL1 IC50. In a few lines: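 Jurkat cells over-expressing human PD-1 (8×10^3 per well, DMEM/10% FCS) preincubated with compound 2 h at 37° C, then PE-labeled human PD-L1-Ig (20 nM final) added for 1 h. Cells fixed with paraformaldehyde, Hoechst-stained, and bound fluorescence quantified by high-content imaging.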
Regarding `Cc1cccc(C[C@@H]2NC(=O)[C@H](CC(=O)O)NC(=O)[C@H](Cc3ccc(OCC(=O)O)cc3)NC(=O)[C@H](CN)NC(=O)CSC[C@@H](C(=O)N[C@@H](CCN)C(=O)NCCOCCOCC(=O)NCCCCCCCCCCC(=O)O)NC(=O)[C@H](CCC(=O)O)NC(=O)[C@H](C(C)C)NC(=O)[C@H](Cc3ccccc3)NC(=O)[C@H](CCN)NC(=O)[C@@H](CC(C)C)NC(=O)[C@H](CCCN)NC(=O)[C@H](Cc3ccc(OCC(=O)O)cc3)NC(=O)[C@H](Cc3ccc(-c4ccccc4)cc3)NC(=O)[C@H](Cc3ccc(OCC(=O)O)cc3)NC2=O)c1` [Compound 1261] ({CH2CO}-[Dap]Y(Carboxymethyl)D[Phe(3-Me)]Y(Carboxymethyl)[Bip]Y(Carboxymethyl)[Orn][dL][Dab]FVEC[Dab][AEEA][Aun]-OH; thioether N-14), the IC50 – broadly, the concentration needed to halve the response being measured – was found to be 9.3 nM.

On to `Cc1cccc(C[C@@H]2NC(=O)[C@H](CC(=O)O)NC(=O)[C@H](Cc3ccc(OCC(=O)O)cc3)NC(=O)[C@H](CC3CCCCC3)NC(=O)CSC[C@@H](C(=O)N[C@@H](CCN)C(=O)NCCOCCOCC(=O)NCCCCCCCCCCC(=O)O)NC(=O)[C@H](CO)NC(=O)[C@H](C(C)(C)O)NC(=O)[C@H](CC3CCCCC3)NC(=O)[C@H](CCN)NC(=O)[C@@H](CC(C)C)NC(=O)[C@H](CCCN)NC(=O)[C@H](Cc3ccc(OCC(=O)O)cc3)NC(=O)[C@H](Cc3ccc(-c4ccccc4)cc3)NC(=O)[C@H](Cc3ccc(OCC(=O)O)cc3)NC2=O)c1` [Compound 1263] ({CH2CO}-[Cha]Y(Carboxymethyl)D[Phe(3-Me)]Y(Carboxymethyl)[Bip]Y(Carboxymethyl)[Orn][dL][Dab][Cha][Val(3-OH)]SC[Dab][AEEA][Aun]-OH; thioether N-14), for which the IC50 was found to be 5.6 nM.

As to `Cc1cccc(C[C@@H]2NC(=O)[C@H](CC(=O)O)NC(=O)[C@H](Cc3ccc(OCC(=O)O)cc3)NC(=O)[C@H](CN)NC(=O)CSC[C@@H](C(=O)N[C@@H](CCN)C(=O)NCCOCCOCC(=O)NCCCCCCCCCCC(=O)O)NC(=O)[C@H](CCC(=O)O)NC(=O)[C@H](C(C)C)NC(=O)[C@H](Cc3ccccc3F)NC(=O)[C@H](CCN)NC(=O)[C@@H](CC(C)C)NC(=O)[C@H](CCCN)NC(=O)[C@H](Cc3ccc(OCC(=O)O)cc3)NC(=O)[C@H](Cc3ccc(-c4ccccc4)cc3)NC(=O)[C@H](Cc3ccc(C(=O)O)cc3)NC2=O)c1` [Compound 1266] ({CH2CO}-[Dap]Y(Carboxymethyl)D[Phe(3-Me)][Phe(4-COOH)][Bip]Y(Carboxymethyl)[Orn][dL][Dab][Phe(2-F)]VEC[Dab][AEEA][Aun]-OH; thioether N-14), the IC50 was found to be 14 nM.

Consider `Cc1cccc(C[C@@H]2NC(=O)[C@H](CC(=O)O)NC(=O)[C@H](Cc3ccc(OCC(=O)O)cc3)NC(=O)[C@H](CN)NC(=O)CSC[C@@H](C(=O)N[C@@H](CCN)C(=O)NCCOCCOCC(=O)NCCCCCCCCCCC(=O)O)NC(=O)[C@H](CCC(=O)O)NC(=O)[C@H](C(C)C)NC(=O)[C@H](Cc3ccccc3C(F)(F)F)NC(=O)[C@H](CCN)NC(=O)[C@@H](CC(C)C)NC(=O)[C@H](CCCN)NC(=O)[C@H](Cc3ccc(OCC(=O)O)cc3)NC(=O)[C@H](Cc3ccc(-c4ccccc4)cc3)NC(=O)[C@H](Cc3ccc(C(=O)O)cc3)NC2=O)c1` [Compound 1267] ({CH2CO}-[Dap]Y(Carboxymethyl)D[Phe(3-Me)][Phe(4-COOH)][Bip]Y(Carboxymethyl)[Orn][dL][Dab][Phe(2-CF3)]VEC[Dab][AEEA][Aun]-OH; thioether N-14), for which the IC50 is 15.2 nM.

(Values after patent US20260022142A1, “MACROCYCLIC IMMUNOMODULATORS” (Bristol-Myers Squibb Company, priority 2022, published 2026).)
